Two compounds from PMC11259170, “Small-molecule probe for IBD risk variant GPR65 I231L alters cytokine signaling networks through positive allosteric modulation” (Science Advances, 2024) can be followed below.

In brackets after ≈: the same amount, converted by molar mass. Read-outs that look alike come from different tables or passages of the source. Bounds are passed on as bounds.

Data set [1] addresses T1, hGPR65 I231L-SmBiT (Homo sapiens, UniProt Q8IYL9, I231L).
T1 construct: expressed in transfected cells; host or cells: Expi293F (Gibco), transient transfection
The data set is described as follows: Nano-BiT target engagement, LgBiT-mGs recruitment to hGPR65 I231L-SmBiT. Type of data set: cell-based. Particulars: 10 μM. Here is the method:
Target engagement was measured in Expi293F (Gibco, 100044202) cells using the Nano-Glo Live Cell Assay System (Promega, N2011). Nano-BiT plasmids were cloned from GPR65-, GPR4-, and GPR68-Tango plasmids. GPR65-Tango (Addgene plasmid # 66370; http://n2t.net/addgene:66370; RRID:Addgene_66370), GPR4-Tango (Addgene plasmid # 66358; http://n2t.net/addgene:66358; RRID:Addgene_66358), and GPR68-Tango (Addgene plasmid # 66371; http://n2t.net/addgene:66371; RRID:Addgene_66371) were gifts from Bryan Roth. Expi293F cells were transfected 1 day before kinetics with 500 ng of each plasmid using ExpiFectamine 293 Transfection Kit (Gibco, A14525). After 24 hours, cells were collected, washed, and resuspended in room temperature 0.1% PBS-BSA, adjusted to pH 7.4 using 1 M NaOH. Cells were transferred to white opaque 96-well microplates (100 μl per well, PerkinElmer, 6005290), followed by addition of the Nano-Glo Live Cell Reagent (25 μl per well). Baseline luminescence was measured for 10 cycles (1 cycle = 90 s) before adding compounds. All luminescence measurements were made on BMG Labtech PHERAstar FSX. Data analysis was performed using GraphPad Prism.

For data set [2], the system named is WT HeLa cells expressing hGPR65. The data set is described as follows: Cytotoxicity assay (CellTiter-Glo, 72 hours). It counts as cell-based, human. On the procedure: WT HeLa cells expressing hGPR65 were seeded at 2000 cells per well in 384-well plates. Compounds were tested in 10-point dose, starting at 50 μM. Cells were incubated with compounds for 72 hours at 37°C, 5% CO2. Cytotoxicity was measured using CellTiter-Glo Luminescent Cell Viability Assay (Promega, G7572) according to the manufacturer’s protocol. Luminescence measurements were made on BMG Labtech PHERAstar FSX. Data analysis was performed using GraphPad Prism.
(Cellular ATP, detected with luciferase, serves as a proxy for viable cell number.)

The nature of data set [3]: Solubility in phosphate buffer. It counts as physicochemical. Particulars: read-out: solubility in phosphate buffer.
A short description of data set [4]: Lipophilicity (logD). Type of data set: physicochemical.
Data set [5] concerns GPR65 KO HeLa cells + pLX empty vector. The data set is described as follows: cAMP detection, GPR65 KO HeLa + empty pLX vector (null control). Particulars: Homo sapiens, 0.5 h; HeLa GPR65 KO + pLX, pH 7.1, 30 min, normalized to DMSO and 100 μM forskolin. Type of data set: cell-based, human. The method, boiled down: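 CRISPR GPR65-KO HeLa cells, lentivirally reconstituted with hGPR65, mGPR65 or empty vector, were treated at 5000 cells/well in HBSS/Hepes with 0.5 mM IBMX at pH 7.1. Compounds were tested at 25 μM (primary screen) or 195 nM–100 μM (dose curves) for 30 min at RT. cAMP was read by Lance Ultra TR-FRET (665/615 nm) after 1 hour.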

Data set [6] deals with GFP-expressing HeLa cells. The data set is described as follows: cAMP detection in HeLa expression cell line, GFP control. Type of data set: cell-based, human. Particulars: Homo sapiens, HeLa, 1st GFP column pair, NA = no activity. An outline of the steps:
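TR-FRET cAMP read-out (Lance Ultra; ex 337 nm, em 620 and 665 nm) after 1 h detection in the dark, following a 30 min RT stimulation of 1500 cells per well in pH 7.2 stimulation buffer with compound supplied as 10 mM DMSO stock. Cells: lentivirally transduced HeLa lines carrying V5-tagged GPCR or GFP, kept under 3 μg/ml puromycin.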

T1 sequence (Q8IYL9 whole entry I231L): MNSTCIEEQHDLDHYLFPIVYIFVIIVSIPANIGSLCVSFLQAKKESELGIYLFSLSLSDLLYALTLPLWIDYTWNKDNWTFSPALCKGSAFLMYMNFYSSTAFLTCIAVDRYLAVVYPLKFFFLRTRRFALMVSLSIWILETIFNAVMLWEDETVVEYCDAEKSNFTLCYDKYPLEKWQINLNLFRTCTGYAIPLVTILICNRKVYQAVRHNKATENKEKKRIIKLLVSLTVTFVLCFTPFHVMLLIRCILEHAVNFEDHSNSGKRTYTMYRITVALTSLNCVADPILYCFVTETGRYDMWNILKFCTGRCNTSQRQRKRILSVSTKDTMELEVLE

The solubility is how much of the substance goes into solution per volume. A word on the logD: it is the decadic logarithm of the distribution of all forms, ionised or not, between an organic phase and buffer at a given pH. In the case of `Cc1ccc(NC(=O)c2cnn3c(O)cc(-c4ccc(COC(C)C)cc4)nc23)nc1` [BRD5075, O=C(NC1=NC=C(C)C=C1)C2=C3N(N=C2)C(O)=CC(C4=CC=C(COC(C)C)C=C4)=N3], the “G protein recruitment in cells expressing hGPR65 I231L” value in data set [1] is given as “able to recruit G protein”. In addition, in data set [2] (50 μM, 72 hours), the cell viability entry is “slight decrease in cell viability”. In data set [2] (72-hour incubation, 0-50 μM), the cytotoxicity result is on record as “not cytotoxic”. The solubility in data set [3] amounted to 116 µM (≈ 48.4 µg/mL). For the same compound, the logD in data set [4] (pH 7.4, pH7.4, read-out: LogD (pH7.4)) worked out at 3.57; in data set [4] (read-out: lipophilicity (logD)), 3.57.

One may read the EC50 as the concentration that produces a half-maximal response. Turning to `CN1N=C(SCc2ccc(Cl)cc2Cl)Sc2c1cnn(C)c2=O` [BTB09089, reference compound], the EC50 was over 100000 nM in data set [5] and 194 nM in data set [6]. Further, the Emax in data set [6] (relative to 100uM forskolin (100%) and DMSO (0%), read-out: GFP Max Activity %) is 1.95%.
